The results in this text go back to patent US20030220254A1, “Composition and method for preparation of an oral dual controlled release formulation of a protein and inhibitor” (TEXAS TECH UNIVERSITY SYSTEM, priority 2002, published 2003).

For data set [1], the target named is T1, trypsin (Bos taurus, UniProt P00760).
T1 construct: gene PRSS1
T1 sequence (P00760 24-246): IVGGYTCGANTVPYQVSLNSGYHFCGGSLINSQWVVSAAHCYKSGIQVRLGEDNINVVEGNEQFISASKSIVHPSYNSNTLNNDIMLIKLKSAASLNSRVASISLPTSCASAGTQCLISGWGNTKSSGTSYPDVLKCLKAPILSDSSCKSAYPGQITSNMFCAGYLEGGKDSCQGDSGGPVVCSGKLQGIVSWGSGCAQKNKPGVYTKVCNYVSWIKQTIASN
Description: Stability of sCT in the presence of trypsin and protease inhibitors. The arrangement: half-life: dose or concentration left out as unconfirmed. Format: biochemical. As for the experimental part:
(§1) sCT solutions (50 μM) were incubated at 37° C. in 50 mM Tris buffer containing 0.1 mM calcium chloride (pH 8.0). Degradation profiles generated in the presence of 0.5 μM trypsin and 0.1 μM α-chymotrypsin served as controls. The concentrations were selected on the basis of a reported study (Schilling R. J. and Mitra A. K. 1991). DkOVM and TkOVM were evaluated at different enzyme-to-inhibitor ratios to evaluate their inhibition of sCT degradation. CkOVM and aprotinin were used at 1:1 enzyme-to-inhibitor ratio in order to compare the efficacy of various protease inhibitors used. sCT and enzyme solutions were incubated for 15 min at 37° C. before starting the experiments. Samples were taken after 0, 5, 15, 30 and 60 min and immediately diluted with cold 1% trifluoroacetic acid (TFA) to reduce the pH to 2.5. The samples were analysed at 4° C. by HPLC given below. Plots of sCT remaining against time were generated. 160 values (amount of sCT (%) remaining after 60 min) were used to compare the efficacy of the ovomucoids. Similar studies were performed with aprotinin. The study was also conducted by incubating 50 μM sCT solutions with 0.5 μM trypsin and 0.1 μM α-chymotrypsin added together and the efficacy of TkOVM was evaluated at various ratios.
(§2) sCT was analyzed by means of our validated HPLC method (Shah R B, et al., 2003). Briefly, a computer controlled Varian Chromatography workstation consisting of the following components was used: Two Dynamax SD-200 pumps, an AI-200A autosampler fitted with a 100 μl injection loop, a Dynamax UV-1 detector and Star 5.3 chromatography software. Room temperature was maintained for the column and chromatographic separations were carried out on a C-18 Vydac 218MS54 column (5 μm, 4.6×250 mm) with a pore size of 300 Å. 50 μl of samples were injected into the column which were analyzed by the reversed phase HPLC method. The mobile phase consisted of 0.05% v/v TFA-Water (A) and 0.05% v/v TFA-Acetonitrile (B). The gradient conditions were 20-35% B for 10 min, 35-37% B from 10th to 20th min and 37-20% B from 20th to 25th min at a flow rate of 1 ml/min. […] Concentrations of sCT were quantified from integrated peak areas and calculated by interpolation from an according standard curve.

Data set [2] concerns the target α-chymotrypsin (Bos taurus, UniProt P00766). Description: Stability of sCT in the presence of α-chymotrypsin and protease inhibitors. Format: biochemical. The arrangement: half-life: dose or concentration left out as unconfirmed. The settings on record: no inhibitor. As for the experimental part:
as §1, §2

Data set [3] has as its system trypsin and α-chymotrypsin. The experiment in a line: Stability of sCT with trypsin and α-chymotrypsin added together, with TkOVM. Format: biochemical. The settings on record: pH 8, no inhibitor, read-out: Half-life (min) of hydrolysis of sCT. As to the method:
as §1, with “Plots of sCT remaining against time were generated. 160 values (amount of sCT (%) remaining after 60 min) were used to compare the efficacy of the ovomucoids. Similar studies were performed with aprotinin.” left out
sCT was analyzed by means of our validated HPLC method (Shah R B, et al., 2003). […] 50 μl of samples were injected into the column which were analyzed by the reversed phase HPLC method. […] Concentrations of sCT were quantified from integrated peak areas and calculated by interpolation from an according standard curve.

Data set [4] relates to Caco-2 cell homogenate. Description: Stability of sCT in Caco-2 cell homogenate. Format: in vitro ADME, Human. The settings on record: Caco-2 homogenate, sCT 50 μM. As to the method: Human colon adenocarcinoma (Caco-2) cells were cultured, in an atmosphere of 5% CO2 at 37° C. in T-75 tissue culture flasks using DMEM supplemented with 10% FBS, 100 U/ml penicillin, 100 μg/ml streptomycin, 1.25 ml human Transferrin. The medium was changed every other day until the flasks reached 90% confluence (3-4 days). Caco-2 cells of less than 20 passages were used. Caco-2 homogenate was prepared according to the method of Augustijns et al. with slight modification. Briefly, the Caco-2 monolayer was washed three times with ice-cold PBS (pH 7.4). The cells were scraped off with a tissue culture scraper on ice and homogenized in 1 ml ice-cold PBS using a mechanical homogenizer. The mixture was centrifuged at 12,000 rpm for 10 min at 4° C. The resultant supernatant was used as Caco-2 homogenate. The protein content was determined using BCA assay. Tryspin and chymotrypsin assay was done for the homogenate as described below.
(§3) The degradation of sCT was studied by incubating the sCT solution to a final concentration of 50 μM with 900 μl Caco-2 cell and goat intestinal homogenates. The samples were withdrawn at 0 and 60 min and were diluted immediately with cold TFA 1%. The samples containing intestinal homogenate were centrifuged at 5000 g for 10 min to remove precipitated proteins. The supernatant was injected into HPLC to determine the sCT content.

Data set [5] can be described thus: in vitro. It counts as in vitro ADME. The settings on record: goat, real gastrointestinal fluid or homogenate, pH 7.4. As for the experimental part:
Goat intestinal homogenate was prepared using a reported method for preparation of intestinal homogenate with minor modifications (Yamamoto et al., 1990). Briefly, fresh goat intestinal tissues, obtained from a local slaughter house, were washed with phosphate buffered saline (PBS) pH 7.4 at 4° C. and stored at −80° C. Immediately before each experiment, specimens were thawed at room temperature and then were washed again with PBS at 4° C. 25 g of tissue was cut from the small intestinal region and was homogenized in 10 ml PBS at 4° C. by use of a mechanical homogenizer for 5 min. The homogenate was centrifuged at 5000 g in a refrigerated (4° C.) centrifuge for 10 min to remove cellular and nuclear debris. The resulting supernatant was assayed for protein content by BCA assay with bovine serum albumin as the standard. The supernatant was also assayed for trypsin and chymotrypsin content.
as §3

Turning to `CC(C)C[C@H](NC(=O)[C@H](CCCCN)NC(=O)CNC(=O)[C@H](CC(C)C)NC(=O)[C@@H](NC(=O)[C@@H]1CSSC[C@H](N)C(=O)N[C@@H](CO)C(=O)N[C@@H](CC(N)=O)C(=O)N[C@@H](CC(C)C)C(=O)N[C@@H](CO)C(=O)N[C@@H]([C@@H](C)O)C(=O)N1)C(C)C)C(=O)N[C@@H](CO)C(=O)N[C@@H](CCC(N)=O)C(=O)N[C@@H](CCC(=O)O)C(=O)N[C@@H](CC(C)C)C(=O)N[C@@H](Cc1c[nH]cn1)C(=O)N[C@@H](CCCCN)C(=O)N[C@@H](CC(C)C)C(=O)N[C@@H](CCC(N)=O)C(=O)N[C@H](C(=O)N[C@@H](Cc1ccc(O)cc1)C(=O)N1CCC[C@H]1C(=O)N[C@@H](CCCNC(=N)N)C(=O)N[C@H](C(=O)N[C@@H](CC(N)=O)C(=O)N[C@H](C(=O)NCC(=O)N[C@@H](CO)C(=O)NCC(=O)N[C@H](C(=O)N1CCC[C@H]1C(N)=O)[C@@H](C)O)[C@@H](C)O)[C@@H](C)O)[C@@H](C)O` [sCT, salmon calcitonin], the “Amount (%) of sCT remaining at 60 min (I60)” value in data set [1] (control, sCT 50 μM without enzyme) was 103.76 ± 3.10%; in data set [1] (trypsin 0.5 μM, no inhibitor), 0.00 ± 0.00%; in data set [2] (chymotrypsin 0.1 μM), 16.18 ± 0.48%; in data set [4], 81.46 ± 10.89%. Also, the half-life came out at 1.51 min in data set [1] (pH 8, trypsin, no inhibitor, read-out: Half-life (min) of hydrolysis of sCT) and 22.4 min in data set [2] (pH 8, α-chymotrypsin, read-out: Half-life (min) of hydrolysis of sCT). Besides, the half-life at 50 μM in data set [3] came out at 0.77 min. Further, the share remaining at 1 h, 50 μM in data set [5] is 91.7 ± 17.6%.
